# Reference: the NIST ThermoML archive (doi:10.1021/je060376d)
# Numbers after ± are expanded uncertainties.
# Test: refractive index (Na D-line) (dimensionless)
# Conditions: 298.15 K; 101.33 kPa; Liquid; Standard Abbe refractometry
row,SMILES,refractive index
1,C1CCCCC1 [cyclohexane],1.4236 ± 0.0008
2,"COCCOCCOC [2,5,8-trioxanonane]",1.4057 ± 0.0008
3,C=CCCCC [hex-1-ene],1.3853 ± 0.0008
4,CC(C)=O [acetone],1.3562 ± 0.0012
5,Cc1ccccc1 [toluene],1.4942 ± 0.0008

# Results, then the molecule that gave them:
row,refractive index,SMILES
1,1.3724 ± 0.0007,CCCCCC [hexane]
2,1.4498 ± 0.0008,O=C1CCCCC1 [cyclohexanone]
